{"source": "patent US20160374944A1", "about": "“COMPOSITIONS AND METHODS FOR TREATING AND PREVENTING CANCER BY TARGETING AND INHIBITING CANCER STEM CELLS” (priority 2011, published 2016)", "key": {"Pancreatic CSCs [1]": {"tested_on": "Pancreatic CSCs", "experiment": "Matrigel invasion assay", "type": "cell-based, human", "description": "(A and B) Pancreatic CSCs were treated with rottlerin (0-1 μM) for 24 h. The expression of Zeb-1 and Slug was measured by the qRT-PCR and normalized to GAPDH. […] (C) In vitro Matrigel invasion assay. CSCs were plated onto the Matrigel-coated membrane in the top chamber of the transwell and treated with rottlerin (0-2 μM) for 48 h. Cells invaded to the lower chamber were fixed with methanol, stained with crystal violet and photo micrographed.\n(A) Pancreatic CSCs were treated with EGCG (0-60 μM) for 48 h. At the end of incubation period, the expression of Snail, ZEB1 and Slug was measured by q-RT-PCR. […] (B) Transwell migration assay. Pancreatic CSCs were plated in the top chamber of the transwell and treated with EGCG (0-60 μM) for 24 h. Cells migrated to the lower chambered were fixed with methanol, stained with crystal violet and counted. […] (C) Matrigel invasion assay. CSCs were plated onto the Matrigel-coated membrane in the top chamber of the transwell and treated with EGCG (0-60 μM) for 48 h. Cells invaded to the lower chambered were fixed with methanol, stained with crystal violet and counted. […] (D) Effects of EGCG on TCF-1/LEF activity. Pancreatic CSCs were transduced with TCF/LEF responsive GFP/firefly luciferase viral particles (pGreen Fire1-Gli with EF1, System Biosciences). Transduced CSCs were treated with EGCG (0-60) for 48 h and the GFP fluorescence was measured.\nFIG. 42A and FIG. 42B show graphs showing quercetin synergizes with EGCG to inhibit self-renewal capacity, invasion, migration, and TCF/LEF and Gli transcriptional activities in pancreatic CSCs. (A) Effects of EGCG and quercetin on spheroid and colony formation. Upper Panel, uercetin synergizes with EGCG to inhibit spheroid's cell viability. CSCs were seeded in suspension and treated with EGCG (0-60 μM) with or without quercetin (20 μM) for 7 days. At the end of incubation period, all the spheroids were collected and resuspended. Cell viability was measured by trypan blue assay. […] Lower panel, uercetin synergizes with EGCG to inhibit colony formation. Pancreatic CSCs were seeded in soft agar and treated with various doses of EGCG (0-60 μM) with or without quercetin (20 μM) and incubated at […] for 21 days. At the end of incubation period, colonies were counted. […] (B) Effects of EGCG and quercetin on invasion and migration. Upper panel, Matrigel invasion assay. […] Cells invaded to the lower chambered were fixed with methanol, stained with crystal violet and counted. […] Cells migrated to the lower chambered were fixed with methanol, stained with crystal violet and counted. […] Apoptosis was measured by TUNEL assay. […] Transduced CSCs were treated with EGCG (40 μM) with or without quercetin (20 μM) for 48 hrs and the luciferase activity was measured."}, "Pancreatic CSCs [2]": {"tested_on": "Pancreatic CSCs", "experiment": "Transwell migration assay", "type": "cell-based, human", "settings": "for migration: EGCG 0-60 μM with or without quercetin 20 μM, 48 hrs", "description": "(A) Pancreatic CSCs were treated with EGCG (0-60 μM) for 48 h. At the end of incubation period, the expression of Snail, ZEB1 and Slug was measured by q-RT-PCR. […] (B) Transwell migration assay. Pancreatic CSCs were plated in the top chamber of the transwell and treated with EGCG (0-60 μM) for 24 h. Cells migrated to the lower chambered were fixed with methanol, stained with crystal violet and counted. […] (C) Matrigel invasion assay. CSCs were plated onto the Matrigel-coated membrane in the top chamber of the transwell and treated with EGCG (0-60 μM) for 48 h. Cells invaded to the lower chambered were fixed with methanol, stained with crystal violet and counted. […] (D) Effects of EGCG on TCF-1/LEF activity. Pancreatic CSCs were transduced with TCF/LEF responsive GFP/firefly luciferase viral particles (pGreen Fire1-Gli with EF1, System Biosciences). Transduced CSCs were treated with EGCG (0-60) for 48 h and the GFP fluorescence was measured. […] FIG. 42A and FIG. 42B show graphs showing quercetin synergizes with EGCG to inhibit self-renewal capacity, invasion, migration, and TCF/LEF and Gli transcriptional activities in pancreatic CSCs. (A) Effects of EGCG and quercetin on spheroid and colony formation. Upper Panel, uercetin synergizes with EGCG to inhibit spheroid's cell viability. CSCs were seeded in suspension and treated with EGCG (0-60 μM) with or without quercetin (20 μM) for 7 days. At the end of incubation period, all the spheroids were collected and resuspended. Cell viability was measured by trypan blue assay. […] Lower panel, uercetin synergizes with EGCG to inhibit colony formation. […] At the end of incubation period, colonies were counted. […] Cells invaded to the lower chambered were fixed with methanol, stained with crystal violet and counted. […] Cells migrated to the lower chambered were fixed with methanol, stained with crystal violet and counted. […] Apoptosis was measured by TUNEL assay. […] Transduced CSCs were treated with EGCG (40 μM) with or without quercetin (20 μM) for 48 hrs and the luciferase activity was measured."}, "[3]": {"settings": "EGCG 0-60 μM with or without quercetin 20 μM, 48 hrs"}}}
{"compound": "O=C(O[C@@H]1Cc2c(O)cc(O)cc2O[C@@H]1c1cc(O)c(O)c(O)c1)c1cc(O)c(O)c(O)c1", "note": "[EGCG, epigallocatechin gallate]", "values": [{"measurement": "invasion", "setting": "Pancreatic CSCs [1]; [3]", "value": "inhibited cell viability in spheroids, colony formation, migration and invasion by CSCs in a dose-dependent manner"}, {"measurement": "invasion", "setting": "Pancreatic CSCs [1]; EGCG 0-60 μM, 48 h", "value": "inhibited"}, {"measurement": "migration", "setting": "Pancreatic CSCs [2]", "value": "inhibited cell viability in spheroids, colony formation, migration and invasion by CSCs in a dose-dependent manner"}, {"measurement": "cell migration", "setting": "Pancreatic CSCs [2]; EGCG 0-60 μM, 24 h", "value": "inhibited"}]}
{"compound": "O=c1c(O)c(-c2ccc(O)c(O)c2)oc2cc(O)cc(O)c12", "note": "[quercetin]", "values": [{"measurement": "invasion", "setting": "Pancreatic CSCs [1]; [3]", "value": "effective alone"}, {"measurement": "migration", "setting": "Pancreatic CSCs [2]", "value": "effective alone"}]}
{"compound": "CC(=O)c1c(O)c(C)c(O)c(Cc2c(O)c3c(c(C(=O)/C=C/c4ccccc4)c2O)OC(C)(C)C=C3)c1O", "note": "[rottlerin]", "values": [{"measurement": "in vitro invasion", "setting": "Pancreatic CSCs [1]; rottlerin 0-2 μM, 48 h, Matrigel", "value": "inhibited the in vitro invasion"}]}
